Laboratory results from article PMC12226733, “Evolution of iGluR ligand specificity, polyamine regulation, and ion selectivity inferred from a placozoan epsilon receptor” (Communications Biology, 2025).
“And” between values parts separate entries of the source, which are not always exact repeats. Equal values may be shown once.

Assays:
GluA2(Q) wt + γ2 = target: T1, GluA2(Q) wt + γ2 (Homo sapiens, UniProt P42262); assay: outside-out patch clamp, block by intracellular spermine, HEK-293T/17 cells; assay type: biochemical; conditions: for Normalized current (Inorm) GluA2 wild type + γ2 / Normalized conductance (Gnorm) GluA2 wild type + γ2: single recordings and AVG;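 for Normalized conductance (Gnorm) GluA2 wild type + γ2: normalized to each receptor's own maximal conductance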
T1 construct: expressed in transfected cells; host or cells: HEK-293T/17
Method: (§1) Parallel experiments were carried out in human GluA2 homotetramers bearing equivalent Q/R/N and +4 site mutations to compare the regulation of voltage-dependent polyamine block within the broader context of mammalian receptors. Experimental design remained the same, except for using 10 mM glutamate as the agonist used to evoke membrane currents (Fig. 7a, d, g, and j). […] Their properties were accordingly compared to wildtype GluA2(Q) co-expressed with TARP-γ2.
(§2) HEK-293T/17 cells (ATCC) were maintained in MEM supplemented with GlutaMAX and 10% fetal bovine serum (FBS) at 37 °C and 5% CO2. […] Transient transfections were carried out 48 h post-plating using the calcium phosphate precipitation method. After 6–8 hours, cells were washed twice with PBS and maintained in fresh medium. Cells transfected with mammalian GluA2 cDNA (plasmid vector described above) were returned to an incubator at 37 °C for 24–48 hours and cells transfected with Epsilon GluE1αA were incubated at 28 °C for 48–72 hours. In cells co-transfected with TARP-γ2, 30 μM NBQX was included in the medium to minimize AMPAR/auxiliary-induced cytotoxicity. All constructs were co-transfected with a plasmid encoding enhanced green fluorescent protein (eGFP) to identify transfected cells. Electrophysiology responses were recorded from outside-out patches excised from transfected cells. Recording pipettes were composed of borosilicate glass (3 to 6 megaohm, King Precision Glass) coated with dental wax to reduce electrical noise. All recordings were performed using Axopatch 200B amplifier (Molecular Devices, LLC). Current records were filtered at 5 or 10 kHz and sampled at 25–50 kHz. Series resistance (3 to 12 megaohms) was compensated by 95%. Recordings were performed at a range of holding potentials from −100 mV to 100 mV to study polyamine block. Data was acquired using pClamp9 software (Molecular Devices, LLC). All experiments were performed at room temperature. All chemicals were purchased from Sigma-Aldrich, unless otherwise indicated. External solution contained (in mM): 150 NaCl, 5 HEPES, 0.1 CaCl2, 0.1 MgCl, and […], pH 7.3–7.4. […] The osmotic pressure of all solutions was adjusted to 295 to 300 mOsm with sucrose. […] Stocks were thawed on the day of the experiment and used to prepared agonist-containing external solutions. Raw data for all electrophysiology experiments are provided in Supplementary Data 3. Current-voltage (I-V) relationships were fit using Origin 7 (OriginLab) using a ninth order polynomial function to estimate the reversal potential (Vrev).
(§3) Agonist-evoked membrane conductance (G) was calculated using the following equation: G=I/(V−Vrev)
(§4) Conductance-voltage (G-V) relationships were fit using Origin 7 (OriginLab) with the single permeant blocker model as done previously[46]: G=Gmax/1+[Spm]/Kd Where Gmax is the maximal conductance, [Spm] is the internal Spm concentration, and Kd is the dissociation constant.
(§5) Kd is defined as: Kd=koff+kperm/kon=sumofexitrates/bindingrate
(§6) And redefined as: Kd=g*exp(V/h)+L*exp(V/k) Where h and k are voltage dependencies of g and L, respectively, and at 0 mV: g=koff/konandL=kperm/kon

GluA2(Q) wt = target: T2, GluA2(Q) wt (Homo sapiens, UniProt P42262); assay: as above; assay type: biochemical; conditions: for Normalized conductance (Gnorm) GluA2 wild type / Normalized current (Inorm) GluA2 wild type: single recordings and AVG
T2 construct: host or cells: HEK-293T/17
Method: as §1, §2, §3, §4, §5, §6

T1 sequence (P42262 25-883): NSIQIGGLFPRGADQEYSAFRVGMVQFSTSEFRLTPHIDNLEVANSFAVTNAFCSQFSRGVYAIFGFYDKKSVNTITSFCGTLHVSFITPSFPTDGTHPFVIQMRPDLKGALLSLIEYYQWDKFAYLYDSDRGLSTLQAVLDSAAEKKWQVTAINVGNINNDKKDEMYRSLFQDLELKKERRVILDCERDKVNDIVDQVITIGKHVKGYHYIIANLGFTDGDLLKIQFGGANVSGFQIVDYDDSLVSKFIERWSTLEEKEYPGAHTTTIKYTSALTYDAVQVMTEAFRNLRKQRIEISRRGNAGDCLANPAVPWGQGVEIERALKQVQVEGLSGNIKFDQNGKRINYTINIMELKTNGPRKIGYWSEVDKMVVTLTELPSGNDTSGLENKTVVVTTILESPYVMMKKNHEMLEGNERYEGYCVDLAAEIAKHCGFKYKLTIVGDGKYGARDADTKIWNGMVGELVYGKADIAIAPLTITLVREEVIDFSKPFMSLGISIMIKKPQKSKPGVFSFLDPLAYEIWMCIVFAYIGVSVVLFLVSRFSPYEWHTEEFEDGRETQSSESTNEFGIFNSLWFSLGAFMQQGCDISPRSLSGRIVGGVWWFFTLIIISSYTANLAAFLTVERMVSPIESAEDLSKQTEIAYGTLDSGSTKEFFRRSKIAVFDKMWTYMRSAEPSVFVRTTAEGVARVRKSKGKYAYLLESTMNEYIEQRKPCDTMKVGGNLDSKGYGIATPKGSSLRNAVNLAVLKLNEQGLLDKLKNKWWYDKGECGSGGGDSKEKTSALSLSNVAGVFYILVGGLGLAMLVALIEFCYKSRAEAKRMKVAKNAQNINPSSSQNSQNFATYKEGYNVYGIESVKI
T1 sequence (Q9Y698 whole entry partner): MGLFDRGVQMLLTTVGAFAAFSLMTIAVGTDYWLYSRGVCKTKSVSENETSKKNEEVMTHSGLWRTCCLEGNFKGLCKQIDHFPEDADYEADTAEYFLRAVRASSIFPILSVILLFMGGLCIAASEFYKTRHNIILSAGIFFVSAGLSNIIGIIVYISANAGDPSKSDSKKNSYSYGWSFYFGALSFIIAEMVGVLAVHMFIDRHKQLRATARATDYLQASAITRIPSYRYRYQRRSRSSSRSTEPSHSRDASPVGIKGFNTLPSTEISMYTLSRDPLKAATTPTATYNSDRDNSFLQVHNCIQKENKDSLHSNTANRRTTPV
T2 sequence (P42262 25-883): as the sequence (P42262 25-883) above

NCCCNCCCCNCCCN [spermine]
Normalized current (Inorm) GluA2 wild type + γ2 (GluA2(Q) wt + γ2; 60 mV): 0.39 and 0.50 and 0.46 and 0.45 | Normalized conductance (Gnorm) GluA2 wild type + γ2 (GluA2(Q) wt + γ2; 70 mV): 0.82 and 0.96 and 0.81 and 0.89 and 0.95 | Normalized current (Inorm) GluA2 wild type + γ2 (GluA2(Q) wt + γ2; 70 mV): 0.49 and 0.62 and 0.51 and 0.57 | Normalized conductance (Gnorm) GluA2 wild type + γ2 (GluA2(Q) wt + γ2; 80 mV): 0.83 and 1.04 and 0.88 and 0.91 and 0.99 and 0.93 | Normalized current (Inorm) GluA2 wild type + γ2 (GluA2(Q) wt + γ2; 80 mV): 0.57 and 0.78 and 0.64 and 0.67 and 0.75 and 0.68 | Normalized conductance (Gnorm) GluA2 wild type + γ2 (GluA2(Q) wt + γ2; 90 mV): 0.86 and 0.93 and 1.02 and 0.94 | Normalized current (Inorm) GluA2 wild type + γ2 (GluA2(Q) wt + γ2; 90 mV): 0.68 and 0.77 and 0.73 and 0.87 and 0.76 | Normalized current (Inorm) GluA2 wild type + γ2 (GluA2(Q) wt + γ2; 100 mV): 0.71 and 0.89 and 0.76 and 1.01 and 0.84 | Normalized conductance (Gnorm) GluA2 wild type + γ2 (GluA2(Q) wt + γ2; -10 mV): 0.69 and 0.62 and 0.75 | Normalized current (Inorm) GluA2 wild type + γ2 (GluA2(Q) wt + γ2; -10 mV): -0.0852 | Normalized conductance (Gnorm) GluA2 wild type + γ2 (GluA2(Q) wt + γ2; -20 mV): 0.78 and 0.82 and 0.74 and 0.85 and 0.80 | Normalized conductance (Gnorm) GluA2 wild type + γ2 (GluA2(Q) wt + γ2; -30 mV): 0.84 and 0.88 and 0.83 and 0.85 and 0.92 and 0.86 | Normalized conductance (Gnorm) GluA2 wild type + γ2 (GluA2(Q) wt + γ2; -40 mV): 0.90 and 0.92 and 0.89 and 0.96 and 0.91 | Normalized conductance (Gnorm) GluA2 wild type + γ2 (GluA2(Q) wt + γ2; -50 mV): 0.96 and 0.94 and 0.92 and 0.93 and 0.98 and 0.95 | Normalized conductance (Gnorm) GluA2 wild type + γ2 (GluA2(Q) wt + γ2; -60 mV): 0.99 and 0.97 and 0.98 | Normalized conductance (Gnorm) GluA2 wild type + γ2 (GluA2(Q) wt + γ2; -70 mV): 1.01 and 0.98 and 0.99 and 0.97 and 0.96 | Normalized conductance (Gnorm) GluA2 wild type + γ2 (GluA2(Q) wt + γ2; -80 mV): 1.01 and 0.98 and 1.00 and 0.99 | Normalized conductance (Gnorm) GluA2 wild type + γ2 (GluA2(Q) wt + γ2; -90 mV): 1.00 and 0.99 and 0.98 | Normalized conductance (Gnorm) GluA2 wild type + γ2 (GluA2(Q) wt + γ2; -100 mV): 1.02 and 1.00 and 0.95 | Normalized current (Inorm) GluA2 wild type + γ2 (GluA2(Q) wt + γ2; -100 mV): -1.00 | h, voltage dependency of block onset (GluA2(Q) wt + γ2; GluA2(Q) wt + γ2): −16.7 ± 1.9 mV | k, voltage dependency of block relief (GluA2(Q) wt + γ2; GluA2(Q) wt + γ2): 18.2 ± 3.0 mV | Kd (GluA2(Q) wt + γ2; GluA2(Q) wt + γ2, 30 µM internal Spm, 10 mM glutamate, read-out: Kd(0mV)): 38.4 ± 11.9 µM | h (GluA2(Q) wt + γ2; fit of Gnorm vs voltage, GluA2 wild type + γ2, single recordings): -13.23 | Normalized conductance (Gnorm) GluA2 wild type (GluA2(Q) wt; 10 mV): 0.13 and 0.07 and 0.09 and 0.12 and 0.14 and 0.11 | Normalized current (Inorm) GluA2 wild type (GluA2(Q) wt; 30 mV): 0.0172 | Normalized current (Inorm) GluA2 wild type (GluA2(Q) wt; 70 mV): 0.19 and 0.25 and 0.20 and 0.28 and 0.32 and 0.36 and 0.27 | Normalized conductance (Gnorm) GluA2 wild type (GluA2(Q) wt; 80 mV): 0.39 and 0.55 and 0.61 and 0.72 and 0.70 and 0.59 | Normalized current (Inorm) GluA2 wild type (GluA2(Q) wt; 80 mV): 0.31 and 0.42 and 0.39 and 0.43 and 0.54 and 0.52 and 0.44 | Normalized conductance (Gnorm) GluA2 wild type (GluA2(Q) wt; 90 mV): 0.49 and 0.69 and 0.70 and 0.77 and 0.89 and 0.81 and 0.72 | Normalized current (Inorm) GluA2 wild type (GluA2(Q) wt; 90 mV): 0.44 and 0.59 and 0.56 and 0.62 and 0.76 and 0.68 and 0.61 | Normalized conductance (Gnorm) GluA2 wild type (GluA2(Q) wt; 100 mV): 0.66 and 0.80 and 0.82 and 0.89 and 0.94 | Normalized current (Inorm) GluA2 wild type (GluA2(Q) wt; 100 mV): 0.66 and 0.77 and 0.74 and 0.80 and 0.89 | Normalized current (Inorm) GluA2 wild type (GluA2(Q) wt; -10 mV): -0.0326 | Normalized current (Inorm) GluA2 wild type (GluA2(Q) wt; -20 mV): -0.0532 | Normalized conductance (Gnorm) GluA2 wild type (GluA2(Q) wt; -40 mV): 0.53 and 0.50 and 0.49 and 0.66 and 0.63 and 0.73 and 0.59 | Normalized conductance (Gnorm) GluA2 wild type (GluA2(Q) wt; -50 mV): 0.65 and 0.63 and 0.62 and 0.80 and 0.70 and 0.82 | Normalized conductance (Gnorm) GluA2 wild type (GluA2(Q) wt; -60 mV): 0.75 and 0.73 and 0.72 and 0.89 and 0.80 and 0.79 | Normalized conductance (Gnorm) GluA2 wild type (GluA2(Q) wt; -70 mV): 0.83 and 0.76 and 0.82 and 0.93 and 0.85 and 0.92 | Normalized conductance (Gnorm) GluA2 wild type (GluA2(Q) wt; -80 mV): 0.88 and 0.91 and 0.95 and 0.89 | Normalized conductance (Gnorm) GluA2 wild type (GluA2(Q) wt; -90 mV): 0.90 and 0.93 and 0.98 and 0.99 and 0.95 | Normalized conductance (Gnorm) GluA2 wild type (GluA2(Q) wt; -100 mV): 0.96 and 0.99 and 0.97 and 1.03 and 1.00 | Normalized current (Inorm) GluA2 wild type (GluA2(Q) wt; -100 mV): -1.00 | h, voltage dependency of block onset (GluA2(Q) wt; GluA2(Q) wt): −18.5 ± 0.7 mV | k, voltage dependency of block relief (GluA2(Q) wt; GluA2(Q) wt): 14.3 ± 0.6 mV | Kd (GluA2(Q) wt; GluA2(Q) wt, 30 µM internal Spm, 10 mM glutamate, read-out: Kd(0mV)): 5.4 ± 2.6 µM | k (GluA2(Q) wt; fit of Gnorm vs voltage, GluA2 wild type, single recordings): 16.05 and 14.65 and 13.61 and 14.56 and 11.91 and 14.81
